Experimental data as given in ChEMBL document CHEMBL3885861, “Open TG-GATES”.

Species: Rattus norvegicus
Test: Open TG-GATES - Regimen: Daily Repeat
Format: toxicity, organism-based, Sprague-Dawley
Design: regimen Daily Repeat, gender Male, age 6 weeks
Details: in vivo, po, route gavage; for APTT / Bas / Eos / Fbg / Hb / Ht / Lym / MCH / MCHC / MCV / Mono / Neu / PT / Plat / RBC / Ret / WBC: tissue Blood; for KIDNEY_L / KIDNEY_R / KIDNEY_TOTAL: tissue Kidney; for LIVER: tissue Liver; for A/G / ALP / ALT / AST / BUN / CRE / Ca / Cl / DBIL / GLC / IP / K / LDH / Na / PL / RALB / TBIL / TC / TG / TP / gamma-GTP: tissue Plasma
[1] = 0 mg/kg, 72 h, dose level Control, time 3 day
[2] = 0 mg/kg, […], dose level Control, time 7 day
[3] = 0 mg/kg, […], dose level Control, time 14 day
[4] = 0 mg/kg, […], dose level Control, time 28 day
[5] = 100 mg/kg, 72 h, dose level Low, time 3 day
[6] = 100 mg/kg, […], dose level Low, time 7 day
[7] = 100 mg/kg, […], dose level Low, time 14 day
[8] = 100 mg/kg, […], dose level Low, time 28 day

## CC[C@@H](CO)NCCN[C@@H](CC)CO [ETHAMBUTOL]
[1]
  TERMINAL_BW: 245.1 g
  APTT: 21.9 s
  Bas: 0%
  Eos: 1%
  Fbg: 308.2 mg/dL
  Hb: 13.6 g/dL
  Ht: 38.8%
  Lym: 80.6%
  MCH: 21.9 pg
  MCHC: 34.9%
  MCV: 62.6 fL
  Mono: 3.2%
  Neu: 13.8%
  PT: 16.1 s
  Plat: 127.2 x10_4/uL
  RBC: 619.8 x10_4/ul
  Ret: 6.5%
  WBC: 109.6 x10_2/uL
  KIDNEY_L: 1.1 g
  KIDNEY_R: 1.1 g
  KIDNEY_TOTAL: 2.2 g
  LIVER: 11.5 g
  A/G: 1.1
  ALP: 1450 IU/L
  ALT: 45.4 IU/L
  AST: 68.6 IU/L
  BUN: 19.2 mg/dL
  CRE: 0.2 mg/dL
  Ca: 10.9 mg/dL
  Cl: 107 meq/L
  DBIL: 0 mg/dL
  GLC: 194.6 mg/dL
  IP: 7.6 mg/dL
  K: 4.4 meq/L
  LDH: 172.4 IU/L
  Na: 140.2 meq/L
  PL: 155.6 mg/dL
  RALB: 3 g/dL
  TBIL: 0.004 mg/dL
  TC: 78.4 mg/dL
  TG: 123.2 mg/dL
  TP: 5.7 g/dL
  gamma-GTP: 1.4 IU/L
[2]
  TERMINAL_BW: 267.6 g
  APTT: 23.2 s
  Bas: 0%
  Eos: 1%
  Fbg: 338.4 mg/dL
  Hb: 14.1 g/dL
  Ht: 41.1%
  Lym: 83%
  MCH: 21.1 pg
  MCHC: 34.3%
  MCV: 61.4 fL
  Mono: 2.2%
  Neu: 12.8%
  PT: 15.4 s
  Plat: 110.1 x10_4/uL
  RBC: 671 x10_4/ul
  Ret: 5.1%
  WBC: 113 x10_2/uL
  KIDNEY_L: 1.1 g
  KIDNEY_R: 1.1 g
  KIDNEY_TOTAL: 2.2 g
  LIVER: 12.3 g
  A/G: 1.1
  ALP: 1523.4 IU/L
  ALT: 43 IU/L
  AST: 69.6 IU/L
  BUN: 17.8 mg/dL
  CRE: 0.2 mg/dL
  Ca: 10.5 mg/dL
  Cl: 106.8 meq/L
  DBIL: 0 mg/dL
  GLC: 198 mg/dL
  IP: 7.3 mg/dL
  K: 4.1 meq/L
  LDH: 200.2 IU/L
  Na: 142.2 meq/L
  PL: 147.6 mg/dL
  RALB: 3 g/dL
  TBIL: 0.006 mg/dL
  TC: 75.4 mg/dL
  TG: 91.6 mg/dL
  TP: 5.6 g/dL
  gamma-GTP: 1.8 IU/L
[3]
  TERMINAL_BW: 330.7 g
  APTT: 21.6 s
  Bas: 0%
  Eos: 0.8%
  Fbg: 321.6 mg/dL
  Hb: 14.4 g/dL
  Ht: 42.1%
  Lym: 80%
  MCH: 20.5 pg
  MCHC: 34.2%
  MCV: 60.1 fL
  Mono: 2.4%
  Neu: 15%
  PT: 16.3 s
  Plat: 103.5 x10_4/uL
  RBC: 701.6 x10_4/ul
  Ret: 4.4%
  WBC: 116.4 x10_2/uL
  KIDNEY_L: 1.3 g
  KIDNEY_R: 1.3 g
  KIDNEY_TOTAL: 2.6 g
  LIVER: 14.5 g
  A/G: 1.2
  ALP: 1341.2 IU/L
  ALT: 41 IU/L
  AST: 72.6 IU/L
  BUN: 19.6 mg/dL
  CRE: 0.2 mg/dL
  Ca: 10.5 mg/dL
  Cl: 106.4 meq/L
  DBIL: 0 mg/dL
  GLC: 196.6 mg/dL
  IP: 7.2 mg/dL
  K: 4 meq/L
  LDH: 191.2 IU/L
  Na: 141.6 meq/L
  PL: 139.6 mg/dL
  RALB: 3 g/dL
  TBIL: 0 mg/dL
  TC: 64.2 mg/dL
  TG: 116.4 mg/dL
  TP: 5.7 g/dL
  gamma-GTP: 1.6 IU/L
[4]
  TERMINAL_BW: 391.8 g
  APTT: 26.2 s
  Bas: 0%
  Eos: 1.2%
  Fbg: 315.8 mg/dL
  Hb: 14.7 g/dL
  Ht: 42.6%
  Lym: 83.4%
  MCH: 19.3 pg
  MCHC: 34.4%
  MCV: 56 fL
  Mono: 2.6%
  Neu: 11.4%
  PT: 15.6 s
  Plat: 106 x10_4/uL
  RBC: 761.2 x10_4/ul
  Ret: 3.1%
  WBC: 131.5 x10_2/uL
  KIDNEY_L: 1.4 g
  KIDNEY_R: 1.4 g
  KIDNEY_TOTAL: 2.8 g
  LIVER: 16.5 g
  A/G: 1
  ALP: 977.2 IU/L
  ALT: 41 IU/L
  AST: 67 IU/L
  BUN: 19.4 mg/dL
  CRE: 0.3 mg/dL
  Ca: 10.3 mg/dL
  Cl: 105.8 meq/L
  DBIL: 0 mg/dL
  GLC: 208 mg/dL
  IP: 6.8 mg/dL
  K: 4.1 meq/L
  LDH: 156 IU/L
  Na: 142.2 meq/L
  PL: 143.6 mg/dL
  RALB: 3.1 g/dL
  TBIL: 0.008 mg/dL
  TC: 72.8 mg/dL
  TG: 100.8 mg/dL
  TP: 6.2 g/dL
  gamma-GTP: 2.4 IU/L
[5]
  TERMINAL_BW: 243.1 g
  APTT: 21.1 s
  Bas: 0%
  Eos: 1%
  Fbg: 341.6 mg/dL
  Hb: 13.4 g/dL
  Ht: 38.6%
  Lym: 80.4%
  MCH: 21.4 pg
  MCHC: 34.9%
  MCV: 61.5 fL
  Mono: 3%
  Neu: 14.2%
  PT: 15.8 s
  Plat: 123.9 x10_4/uL
  RBC: 627.8 x10_4/ul
  Ret: 6.4%
  WBC: 92.5 x10_2/uL
  KIDNEY_L: 1.1 g
  KIDNEY_R: 1 g
  KIDNEY_TOTAL: 2.1 g
  LIVER: 12 g
  A/G: 1.2
  ALP: 1628.8 IU/L
  ALT: 45.2 IU/L
  AST: 72.4 IU/L
  BUN: 17.4 mg/dL
  CRE: 0.2 mg/dL
  Ca: 10.8 mg/dL
  Cl: 107 meq/L
  DBIL: 0 mg/dL
  GLC: 187 mg/dL
  IP: 7.2 mg/dL
  K: 4.1 meq/L
  LDH: 158.4 IU/L
  Na: 140.8 meq/L
  PL: 156.4 mg/dL
  RALB: 3.1 g/dL
  TBIL: 0.016 mg/dL
  TC: 82.2 mg/dL
  TG: 117.8 mg/dL
  TP: 5.6 g/dL
  gamma-GTP: 1.6 IU/L
[6]
  TERMINAL_BW: 272 g
  APTT: 22.4 s
  Bas: 0%
  Eos: 0.8%
  Fbg: 340.4 mg/dL
  Hb: 13.9 g/dL
  Ht: 40.1%
  Lym: 80.6%
  MCH: 21.4 pg
  MCHC: 34.6%
  MCV: 62 fL
  Mono: 2.6%
  Neu: 14.8%
  PT: 15.8 s
  Plat: 125.3 x10_4/uL
  RBC: 646.8 x10_4/ul
  Ret: 5.9%
  WBC: 109.9 x10_2/uL
  KIDNEY_L: 1.1 g
  KIDNEY_R: 1.1 g
  KIDNEY_TOTAL: 2.3 g
  LIVER: 13.7 g
  A/G: 1.1
  ALP: 1577.2 IU/L
  ALT: 42.2 IU/L
  AST: 67.2 IU/L
  BUN: 18.2 mg/dL
  CRE: 0.2 mg/dL
  Ca: 10.4 mg/dL
  Cl: 106.6 meq/L
  DBIL: 0 mg/dL
  GLC: 185.4 mg/dL
  IP: 7.6 mg/dL
  K: 4 meq/L
  LDH: 154.6 IU/L
  Na: 141.8 meq/L
  PL: 147.6 mg/dL
  RALB: 3 g/dL
  TBIL: 0.01 mg/dL
  TC: 74.8 mg/dL
  TG: 113.6 mg/dL
  TP: 5.8 g/dL
  gamma-GTP: 2.4 IU/L
[7]
  TERMINAL_BW: 312.5 g
  APTT: 22.7 s
  Bas: 0%
  Eos: 1.2%
  Fbg: 318.2 mg/dL
  Hb: 14 g/dL
  Ht: 40.9%
  Lym: 80%
  MCH: 20.5 pg
  MCHC: 34.2%
  MCV: 60 fL
  Mono: 2.6%
  Neu: 15%
  PT: 16.9 s
  Plat: 110.4 x10_4/uL
  RBC: 681.8 x10_4/ul
  Ret: 4.5%
  WBC: 127.4 x10_2/uL
  KIDNEY_L: 1.3 g
  KIDNEY_R: 1.3 g
  KIDNEY_TOTAL: 2.6 g
  LIVER: 14.2 g
  A/G: 1.2
  ALP: 1502.6 IU/L
  ALT: 47.4 IU/L
  AST: 75.2 IU/L
  BUN: 19.6 mg/dL
  CRE: 0.2 mg/dL
  Ca: 10.3 mg/dL
  Cl: 106.4 meq/L
  DBIL: 0 mg/dL
  GLC: 195.4 mg/dL
  IP: 6.8 mg/dL
  K: 4.1 meq/L
  LDH: 144.6 IU/L
  Na: 141 meq/L
  PL: 132.8 mg/dL
  RALB: 3 g/dL
  TBIL: 0.014 mg/dL
  TC: 67 mg/dL
  TG: 81 mg/dL
  TP: 5.5 g/dL
  gamma-GTP: 2 IU/L
[8]
  TERMINAL_BW: 351.2 g
  APTT: 23.2 s
  Bas: 0%
  Eos: 1%
  Fbg: 288.8 mg/dL
  Hb: 14.5 g/dL
  Ht: 41.9%
  Lym: 81.2%
  MCH: 18.3 pg
  MCHC: 34.7%
  MCV: 52.9 fL
  Mono: 2%
  Neu: 14%
  PT: 16.6 s
  Plat: 94.5 x10_4/uL
  RBC: 792.8 x10_4/ul
  Ret: 2.6%
  WBC: 137.8 x10_2/uL
  KIDNEY_L: 1.3 g
  KIDNEY_R: 1.4 g
  KIDNEY_TOTAL: 2.7 g
  LIVER: 15.1 g
  A/G: 1.1
  ALP: 1233.8 IU/L
  ALT: 47.4 IU/L
  AST: 77 IU/L
  BUN: 20.8 mg/dL
  CRE: 0.2 mg/dL
  Ca: 9.8 mg/dL
  Cl: 106.4 meq/L
  DBIL: 0 mg/dL
  GLC: 195.6 mg/dL
  IP: 6 mg/dL
  K: 3.9 meq/L
  LDH: 143.6 IU/L
  Na: 141.8 meq/L
  PL: 133 mg/dL
  RALB: 2.9 g/dL
  TBIL: 0.026 mg/dL
  TC: 76.8 mg/dL
  TG: 62.4 mg/dL
  TP: 5.7 g/dL
  gamma-GTP: 1.8 IU/L
